Test results: EP0329198B1, “Base modified oligo- and polynucleotides and methods of preparing and using same” (priority 1981, dated 1982)
Where two headings read alike, the source gives them in different places.

Legend:
[1] = test system: CHO cells, permeabilized by treatment with lysolecithin; assay: Polymerase substrate function in permeabilized cells
[2] = target: streptavidin (Streptomyces avidinii, UniProt P22629); conditions: affinity of streptavidin for biotin; cited from earlier work
[3] = target: avidin (Gallus gallus, UniProt P02701); conditions: cited from earlier work
Chain of avidin (P02701 25-152): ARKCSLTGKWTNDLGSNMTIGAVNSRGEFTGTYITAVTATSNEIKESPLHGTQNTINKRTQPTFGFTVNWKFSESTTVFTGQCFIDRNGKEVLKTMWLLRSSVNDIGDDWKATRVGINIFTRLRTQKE

[4] = target: Streptavidin-Sepharose (Streptomyces avidinii, UniProt P22629)
Chain of Streptavidin-Sepharose (P22629 25-183): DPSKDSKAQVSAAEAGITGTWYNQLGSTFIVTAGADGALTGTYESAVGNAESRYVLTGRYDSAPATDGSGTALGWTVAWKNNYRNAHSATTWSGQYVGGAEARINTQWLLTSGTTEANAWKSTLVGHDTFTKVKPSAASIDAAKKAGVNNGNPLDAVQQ
From the text: Its preparation and purification is described in Hoffman, et al., Proc. Natl. Acad. Sci., 77, 4666 (1980).

Chain of streptavidin (P22629 25-183): as above

## O=C(CCCCC1SCC2NC(=O)NC21)NC/C=C/c1cn(C2CC(O)C(COP(=O)(O)OP(=O)(O)OP(=O)(O)O)O2)c(=O)[nH]c1=O (stereo not shown) [Bio-dUTP, biotinyl-dUTP]
[1]
  polymerase substrate function: function as a polymerase substrate

## O=C(O)CCCC[C@@H]1SC[C@@H]2NC(=O)N[C@@H]21 [biotin]
[2]
  Kassn: 10^15

## N=C1N[C@H]2[C@H](CS[C@H]2CCCCC(=O)O)N1 [iminobiotin]
[3]
  binding to avidin relative to biotin: less tightly than biotin

## Iminobiotinyl-dUTP [^3H-IB-dUTP]
[4]; Load - 10 mM Tris-HCl, 8.3, 50 mM NaCl
  % Retained on SA-Sepharose: 100%
[4]; eluent (1) 0.1 M NaCl
  % Retained on SA-Sepharose: 100%
[4]; eluent (2) 1.0 M NaCl
  % Retained on SA-Sepharose: 100%
[4]; eluent (3) 8 M Urea
  % Retained on SA-Sepharose: 97.5%
[4]; eluent (4) 6 M guanidine-HCl
  % Retained on SA-Sepharose: 97.0%
[4]; eluent (5) 50 mM NH4-acetate, pH 4.0
  % Retained on SA-Sepharose: <0.01%
[4]; eluent (6) 50 mM NH4-acetate, pH 4.0 2 mM biotin
  % Retained on SA-Sepharose: <0.01%
